This assay addresses T1, HLA-DR1 (DRB1*0101) (Homo sapiens, UniProt P01903+P01911, A100R/D57E/F55L/F60I/F76Y/I96L/L162R/M171V/P40L/Q125E/R42F/V115G/Y59C).
T1 construct: the extracellular portion of HLA-DR1 was produced by expression of isolated subunits in Escherichia coli inclusion bodies; made in house
As to the kind of experiment: biochemical. The format is binding.

In PMC2014795 (PLoS Pathogens, 2007) one finds IC50 data, which are given here for 5 compounds.

For orientation: IC50 means the concentration needed to halve the response being measured. Higher therefore signals weaker potency.

Turning to `CC[C@H](C)[C@H](NC(=O)[C@H](C)NC(=O)[C@H](CC(C)C)NC(=O)[C@H](CO)NC(=O)[C@H](CC(N)=O)NC(=O)[C@H](CC(C)C)NC(=O)[C@H](Cc1ccccc1)NC(=O)[C@H](CCCNC(=N)N)NC(=O)[C@H](CCSC)NC(=O)[C@H](CC(=O)O)NC(=O)[C@H](Cc1ccccc1)NC(=O)[C@H](CCC(N)=O)NC(=O)CNC(=O)[C@@H](NC(=O)[C@@H](N)Cc1ccc(O)cc1)[C@@H](C)CC)C(=O)N[C@@H](Cc1c[nH]cn1)C(=O)N[C@@H](CCC(=O)O)C(=O)N[C@@H](CCCCN)C(=O)N[C@@H](Cc1ccccc1)C(=O)N[C@@H](CC(=O)O)C(=O)N[C@@H](C)C(=O)O` [Peptide 314], the IC50 worked out at 0.004 ± 0.001 µM. The value for `CC[C@H](C)[C@H](NC(=O)[C@@H]1CCCN1C(=O)[C@H](CO)NC(=O)CNC(=O)[C@H](CO)NC(=O)[C@H](CC(C)C)NC(=O)[C@H](CC(C)C)NC(=O)[C@H](CC(C)C)NC(=O)[C@H](Cc1ccccc1)NC(=O)[C@@H]1CCCN1C(=O)[C@@H](NC(=O)[C@H](CCCCN)NC(=O)[C@H](CC(N)=O)NC(=O)[C@H](CCCCN)NC(=O)[C@@H](N)CC(N)=O)[C@@H](C)CC)C(=O)N[C@H](C(=O)N[C@@H](CC(N)=O)C(=O)N[C@H](C(=O)N1CCC[C@H]1C(=O)N[C@@H](CC(N)=O)C(=O)N[C@H](C(=O)O)[C@@H](C)O)[C@@H](C)O)[C@@H](C)O` [Peptide 316] was 0.045 ± 0.019 µM. For `CC[C@H](C)[C@H](NC(=O)[C@H](CCSC)NC(=O)[C@@H](N)Cc1ccc(O)cc1)C(=O)N[C@H](C(=O)N[C@H](C(=O)NCC(=O)N[C@H](C(=O)N[C@H](C(=O)N[C@H](C(=O)N[C@@H](CC(C)C)C(=O)N[C@@H](C)C(=O)N[C@@H](C)C(=O)N[C@@H](CC(C)C)C(=O)N[C@@H](Cc1ccccc1)C(=O)N[C@@H](CCSC)C(=O)N[C@@H](Cc1ccc(O)cc1)C(=O)N[C@@H](Cc1ccc(O)cc1)C(=O)N[C@@H](C)C(=O)N[C@@H](CCCCN)C(=O)N[C@@H](CCCNC(=N)N)C(=O)N[C@@H](CCSC)C(=O)O)[C@@H](C)CC)[C@@H](C)CC)C(C)C)[C@@H](C)CC)C(C)C` [Peptide 317] the value was 0.675 ± 0.185 µM; for `CC[C@H](C)[C@H](NC(=O)[C@H](CO)NC(=O)[C@H](CCSC)NC(=O)[C@H](CO)NC(=O)[C@H](Cc1ccc(O)cc1)NC(=O)[C@@H](NC(=O)[C@@H](NC(=O)[C@H](CO)NC(=O)[C@@H]1CCCN1C(=O)[C@H](Cc1ccccc1)NC(=O)[C@H](CC(C)C)NC(=O)[C@H](CC(C)C)NC(=O)[C@@H](NC(=O)[C@@H](NC(=O)[C@@H](NC(=O)[C@H](CC(C)C)NC(=O)[C@H](CO)NC(=O)[C@H](CCCNC(=N)N)NC(=O)[C@@H](N)CCSC)[C@@H](C)CC)[C@@H](C)CC)C(C)C)[C@@H](C)CC)[C@@H](C)CC)C(=O)N[C@@H](CCCNC(=N)N)C(=O)N[C@@H](CCCNC(=N)N)C(=O)O` [Peptide 319], 1.89 µM. For `CC[C@H](C)[C@H](NC(=O)[C@@H](NC(=O)[C@H](CC(N)=O)NC(=O)[C@H](CCCNC(=N)N)NC(=O)[C@H](Cc1c[nH]cn1)NC(=O)[C@H](CCCNC(=N)N)NC(=O)[C@@H](NC(=O)[C@H](Cc1ccc(O)cc1)NC(=O)[C@H](CCC(=O)O)NC(=O)[C@H](C)NC(=O)[C@H](CC(C)C)NC(=O)[C@@H](NC(=O)[C@H](CC(C)C)NC(=O)[C@H](CCCCN)NC(=O)[C@H](Cc1ccccc1)NC(=O)[C@H](CO)NC(=O)[C@H](Cc1ccc(O)cc1)NC(=O)[C@H](CCCCN)NC(=O)[C@H](CC(N)=O)NC(=O)[C@H](Cc1ccc(O)cc1)NC(=O)[C@@H](N)CC(C)C)[C@@H](C)CC)[C@@H](C)CC)[C@@H](C)O)C(=O)O` [Peptide 321], the IC50 was 0.185 ± 0.05 µM.
